Results on 12 molecules are retold here after PubChem BioAssay (NCI).

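In this assay, cells in 96-well plates receive the compound at five concentrations for 48 hours. Endpoints are linearly interpolated between the surrounding concentrations. At the GI50, growth is halved. TGI denotes the concentration required for complete inhibition of growth.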 Where only a bound is given, the exact number is not on record here.

Test systems include BT-549 breast; HCT-15 colon; K-562 leukemia; KM12 colon; MCF7 breast; SW-620 colon; CCRF-CEM leukemia; HCC-2998 colon.
Experiment in all cases: inhibition of tumour cell growth, NCI panel, 48 h

On to `Oc1cc2c(cc1C(c1ccc3c(c1)OCO3)N1CCN(C(c3ccc4c(c3)OCO4)c3cc4c(cc3O)OCO4)CC1)OCO2` (stereo not drawn), for which the TGI in the assay on BT-549 breast is 45.1 µM; in the assay with HCT-15 colon, 20.3 µM; in the assay on K-562 leukemia, 65.1 µM; in the assay on KM12 colon, 30.8 µM; in the assay on MCF7 breast, over 100 µM; with SW-620 colon it was 25.3 µM.
As to `CNC1=CC(=O)C2=C(C1=O)C1C3=C(C(=O)C(Br)=C(OC)C3=O)C2c2ccccc21` (stereo not drawn), the GI50 in the assay with BT-549 breast was 1.6 µM; in the assay with HCT-15 colon, 2.06 µM; in the assay with K-562 leukemia it was 1.35 µM; in the assay on KM12 colon, 1.87 µM; in the assay with MCF7 breast, 2.65 µM; with SW-620 colon it was 2.88 µM. The TGI is 5.3 µM in the assay with BT-549 breast; 10.5 µM in the assay on HCT-15 colon; 3.01 µM in the assay with K-562 leukemia; 5.93 µM with KM12 colon; 26.2 µM in the assay on MCF7 breast; over 50 µM in the assay with SW-620 colon.
In the case of `NC(=S)N/N=C/c1ccc(OC(=O)COc2ccccc2)cn1`, the GI50 in the assay with BT-549 breast is 26.4 µM; in the assay with CCRF-CEM leukemia it was 1.58 µM; in the assay on HCC-2998 colon, 8.37 µM; in the assay with HCT-15 colon, 20.2 µM; in the assay on K-562 leukemia, 2.88 µM; in the assay on KM12 colon, 3.16 µM. The GI50 is 2.76 µM with MCF7 breast and 5.02 µM in the assay with SW-620 colon. Moreover, the TGI with BT-549 breast, with CCRF-CEM leukemia, in the assay with HCC-2998 colon, in the assay with HCT-15 colon, in the assay with K-562 leukemia and with KM12 colon was over 100 µM each time. The TGI in the assay on MCF7 breast and in the assay on SW-620 colon was over 100 µM each time.
Take `CC(=O)OC1CC2(O)C(CCC3(C)C(c4ccc(=O)oc4)CCC32O)C2(C)CCC(OC3OC(CO)C(O)C(O)C3O)C=C12` (stereo not drawn): the GI50 in the assay on BT-549 breast is 0.0101 µM; with CCRF-CEM leukemia, under 0.01 µM; in the assay with HCC-2998 colon, 0.0735 µM; in the assay on HCT-15 colon, 0.0343 µM; with K-562 leukemia it was 0.0295 µM; in the assay with KM12 colon, 0.0416 µM. For the same molecule, the GI50 in the assay on MCF7 breast was 0.0183 µM; in the assay on SW-620 colon, 0.0275 µM. For the same molecule, the TGI is 0.0661 µM with BT-549 breast; 0.115 µM with CCRF-CEM leukemia; 0.419 µM in the assay on HCC-2998 colon; 0.134 µM in the assay with HCT-15 colon; 0.175 µM in the assay with K-562 leukemia; 0.2 µM in the assay on KM12 colon. The values for the TGI in the assay with MCF7 breast and in the assay on SW-620 colon were 0.167 µM and 0.144 µM, respectively.
Regarding `Cc1cccc2c(N=Nc3ccccc3[N+](=O)[O-])c(O)[nH]c12`, the TGI in the assay on BT-549 breast was over 74.1 µM; with CCRF-CEM leukemia, over 43.6 µM; in the assay on HCC-2998 colon, over 31.6 µM; in the assay on HCT-15 colon, 97.7 µM; in the assay on K-562 leukemia, over 100 µM; in the assay on KM12 colon it was over 58.6 µM. For the same molecule, the TGI with MCF7 breast was 24.3 µM; in the assay on SW-620 colon, over 74.6 µM.
Turning to `C=C(CN(C)Cc1ccccc1)c1ccc(C(=O)Nc2ccccc2N)cc1`, the GI50 with BT-549 breast was 1.48 µM; in the assay on HCT-15 colon, 2.2 µM; with K-562 leukemia, 3.22 µM; with KM12 colon it was 1.23 µM; in the assay on MCF7 breast it was 16.8 µM; in the assay with SW-620 colon, 6.08 µM. Moreover, the TGI with BT-549 breast was 10.1 µM; with HCT-15 colon, 12.2 µM; in the assay on K-562 leukemia it was over 50 µM; in the assay with KM12 colon it was 7.26 µM; in the assay with MCF7 breast, over 50 µM; in the assay on SW-620 colon it was over 50 µM.
As to `Cc1ccc(S(=O)(=O)NNC(C[N+](=O)[O-])c2ccccc2)cc1` (stereo not drawn), the TGI in the assay with BT-549 breast was 34.3 µM; in the assay with CCRF-CEM leukemia it was over 100 µM; in the assay with HCT-15 colon, 39.5 µM; in the assay on K-562 leukemia, over 100 µM; in the assay on KM12 colon, over 100 µM; with MCF7 breast, 21.6 µM. This molecule also had a TGI with SW-620 colon of over 100 µM.
For the molecule `CCCC(=O)O[C@]1(C)CC[C@@H]2[C@H]3[C@@H]1[C@@H]1C/C(C)=C\CC[C@](C)(OC(=O)[C@@H]2C)[C@H]3O1`, the GI50 in the assay on BT-549 breast is 61.9 µM; with CCRF-CEM leukemia, 8.89 µM; with HCC-2998 colon, 21.7 µM; with HCT-15 colon it was 44.4 µM; in the assay with KM12 colon it was 32.8 µM; in the assay with MCF7 breast, 29.1 µM. Further, in the assay with SW-620 colon, the GI50 was 40.6 µM. Moreover, the TGI with BT-549 breast was over 100 µM; in the assay on CCRF-CEM leukemia it was 26 µM; with HCC-2998 colon, 82.9 µM; in the assay on HCT-15 colon it was over 100 µM; with KM12 colon it was over 100 µM; in the assay on MCF7 breast, over 100 µM. This molecule also registered a TGI with SW-620 colon of over 100 µM.
Take `CN(C)CCCN1c2ccc(O)cc2Sc2ccc(Cl)cc21`: the TGI in the assay with BT-549 breast amounted to 25.2 µM; in the assay with CCRF-CEM leukemia, 22.2 µM; with HCT-15 colon, 29 µM; in the assay on K-562 leukemia it was 16.8 µM; in the assay on KM12 colon, 23 µM; in the assay on MCF7 breast, 26.5 µM. Also, the TGI in the assay with SW-620 colon was determined as 39.6 µM.
In the case of `O=C(O)c1nnsc1-c1csnn1`, the TGI in the assay on BT-549 breast, with CCRF-CEM leukemia, in the assay on HCT-15 colon, in the assay on K-562 leukemia, in the assay with KM12 colon and in the assay with MCF7 breast was over 100 µM in each case. For the same molecule, in the assay with SW-620 colon, the TGI is over 100 µM.
With `O=C(NCCNC(=O)c1ccc(F)cc1)Nc1ccc(-n2cc(-c3ccncc3)c(-c3ccc(Cl)c(O)c3)n2)cc1`, the GI50 was 0.338 µM in the assay with BT-549 breast; 0.336 µM in the assay on CCRF-CEM leukemia; 0.597 µM in the assay on HCC-2998 colon; 2.12 µM with HCT-15 colon; 0.433 µM in the assay with KM12 colon; 0.323 µM with MCF7 breast. The GI50 in the assay with SW-620 colon was 0.43 µM. Further, the TGI in the assay on BT-549 breast is 2.91 µM; in the assay on CCRF-CEM leukemia it was over 100 µM; in the assay on HCC-2998 colon, 2.85 µM; in the assay with HCT-15 colon, 7 µM; in the assay on KM12 colon, 2.28 µM; in the assay with MCF7 breast, over 100 µM. Moreover, the TGI in the assay with SW-620 colon is over 100 µM.
As for `Cc1ccc(S(=O)(=O)N[C@@H](Cc2ccccc2)C(=O)CCl)cc1`, the GI50 is 6.64 µM in the assay on BT-549 breast; 1.03 µM in the assay with HCC-2998 colon; 10.8 µM in the assay on HCT-15 colon; 4.26 µM with K-562 leukemia; 18.2 µM in the assay on KM12 colon; 15.5 µM in the assay on MCF7 breast. In addition, the GI50 in the assay on SW-620 colon was 10.2 µM. For the same molecule, the TGI in the assay on BT-549 breast was found to be 24 µM; in the assay with HCC-2998 colon, 21.8 µM; in the assay with HCT-15 colon, 27.5 µM; with K-562 leukemia, 31.4 µM; in the assay on KM12 colon it was 38 µM; with MCF7 breast it was 50.9 µM. For the same molecule, in the assay on SW-620 colon, the TGI came to 59.4 µM.
